From US5453426A, “Sulfur-containing xanthine derivatives as adenosine antagonists” (priority 1994, dated 1995)
Where two headings read alike, the source gives them in different places.

Experiments:
A1 adenosine receptors = target: T1, A1 adenosine receptors (Rattus norvegicus, UniProt P25099); test: Inhibition of binding of [3H]N6-phenylisopropyladenosine to A1 adenosine receptors in rat cerebral cortical membranes; settings: for Ki (A2)/Ki (A1): ratio of A2 (rat striatum) to A1 (rat cortex) Ki; for fold less potent at A1-receptors: 6-thio analog versus oxygen analog (CPX or DPX, 24); for A1 affinity/potency, in words: relative to the analogs named in the text
T1 construct: A1 adenosine receptors in rat cerebral cortical membranes; from tissue; host or cells: rat cerebral cortex membranes
T1 sequence (P25099 1-326): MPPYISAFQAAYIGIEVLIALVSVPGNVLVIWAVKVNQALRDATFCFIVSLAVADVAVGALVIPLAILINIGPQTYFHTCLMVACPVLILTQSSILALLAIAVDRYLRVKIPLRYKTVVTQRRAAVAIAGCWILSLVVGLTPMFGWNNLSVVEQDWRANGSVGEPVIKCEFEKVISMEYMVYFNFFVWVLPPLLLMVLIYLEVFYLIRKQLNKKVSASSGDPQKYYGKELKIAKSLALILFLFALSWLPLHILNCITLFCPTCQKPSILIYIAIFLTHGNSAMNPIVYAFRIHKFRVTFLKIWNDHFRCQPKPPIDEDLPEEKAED

A2 adenosine receptors [1] = target: T2, A2 adenosine receptors (Rattus norvegicus, UniProt P30543); test: Inhibition of binding of [3H]N-ethylcarboxamidoadenosine to A2-adenosine receptors in rat striatal membranes; settings: for A2 affinity/potency, in words: relative to the analogs named in the text
Method: Affinity at A1 - and A2 -adenosine receptors was measured in competitive binding assays, using as radioligands [^3 H]N^6 -phenylisopropyladenosine^17 (with rat cerebral cortical membranes) and [^3 H]5'-N-ethylcarboxamidoadenosine (with rat striatal membranes),^18 respectively.
N^6 -Cyclopentyladenosine was present at 50 nM to inhibit binding of the ligand at A1 -adenosine receptors. Inhibition of binding by a range of concentrations of xanthines was assessed in triplicate in at least three separate experiments. IC50 -values were converted to Ki-values by the method of Bruns et al,^18 using a conversion factor derived from the affinity of [^3 H]N-ethylcarboxamidoadenosine at A2 receptors and the Cheng-Prusoff equation.^19

A1 -adenosine receptors = settings: background; cited from earlier work
A2 adenosine receptors [2] = target: T2, A2 adenosine receptors; parameters: A2 -adenosine receptors in rat striatal membranes; from tissue; host or cells: rat striatum membranes; settings: values taken from Bruns et al. (ref 18); cited from earlier work
[3] = rat cortical membranes, [3H]PIA, single determination in triplicate or average of three ± S.E.M., read-out: Ki A1-receptors
[4] = read-out: Ki A2-receptors, rat striatal membranes, [3H]NECA, single determination in triplicate or average of three ± S.E.M.

T2 sequence (P30543 whole entry): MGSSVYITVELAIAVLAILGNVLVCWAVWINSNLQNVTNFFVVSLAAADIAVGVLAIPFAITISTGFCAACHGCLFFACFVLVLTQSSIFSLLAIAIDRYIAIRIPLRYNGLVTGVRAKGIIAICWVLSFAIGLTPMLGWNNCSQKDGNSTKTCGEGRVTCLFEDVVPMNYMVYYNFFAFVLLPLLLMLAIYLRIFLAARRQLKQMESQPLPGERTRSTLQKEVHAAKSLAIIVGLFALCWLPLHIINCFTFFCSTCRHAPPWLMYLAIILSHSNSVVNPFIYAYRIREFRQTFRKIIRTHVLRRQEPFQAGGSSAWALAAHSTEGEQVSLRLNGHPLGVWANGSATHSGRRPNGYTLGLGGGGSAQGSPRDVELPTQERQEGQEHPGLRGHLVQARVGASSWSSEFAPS

Structure (SMILES) | Ki (A1 adenosine receptors; [3]) | Ki (A2)/Ki (A1) (A1 adenosine receptors) | Ki (A2 adenosine receptors [1]) | further results
Cn1c(=O)c2[nH]c(C3CCCC3)nc2n(C)c1=S [Compound 13] | 8 nM | 170 | 1390 nM | 
Cn1c(=S)c2[nH]c(C3CCCC3)nc2n(C)c1=S [Compound 52] | 40.5 ± 6.6 nM | 285 | 11500 nM | 
CCCn1c(=O)c2[nH]c(-c3cccs3)nc2n(CCC)c1=O [Compound 19] | 16.1 ± 1.96 nM | 23.6 | 381 ± 27.7 nM | 
CCCn1c(=O)c2[nH]c(-c3ccc(OCC(=O)OCC)cc3)nc2n(CCC)c1=O [Compound 29] | 42 ± 3 nM | > 238 | > 10000 nM | 
CCCn1c(=O)c2[nH]c(-c3ccc(OCC(=O)O)cc3)nc2n(CCC)c1=S [Compound 28, 8-(4-(carboxymethyloxy)phenyl)-1,3-dipropyl-2-thioxanthine] | 53.8 ± 7.1 nM | 5.86 | 315 ± 60.8 nM | enhancement of potency at A2-receptors by the 2-thio substitution (A2 adenosine receptors [1]; 28 versus oxygen analog 27): 7 fold
CCCn1c(=O)c2[nH]c(-c3ccc(OCC(=O)NCCNC(=O)Cc4cccs4)cc3)nc2n(CCC)c1=O [Compound 46] | 18.3 ± 3 nM | 8.1 | 147 ± 5 nM | 
CCCn1c(=O)c2[nH]c(-c3ccsc3)nc2n(CCC)c1=O [Compound 20] | 10 ± 0.03 nM | 12.1 | 121 ± 18.2 nM | A2 affinity/potency, in words (A2 adenosine receptors [1]): Preference for 3-thienyl derivatives was evident particularly at the A2 -subtype
CCCn1c(=O)c2[nH]c(-c3ccc(OCC(=O)OCC)cc3)nc2n(CCC)c1=S [Compound 30] | 6.78 ± 0.64 nM | > 740 | > 5000 nM | 
CCCn1c(=O)c2[nH]c(C3CCCC3)nc2n(CCC)c1=O [Compound 2b, 8-cyclopentyl-1,3-dipropylxanthine] |  |  |  | potency in binding at A1-adenosine receptors versus theophylline (A1 -adenosine receptors): more than four orders of magnitude more potent than theophylline
CCCn1c(=O)c2[nH]c(-c3ccc(OCC(=O)NCCNC(=O)[C@H](N)CCCCNC(=O)OCc4ccccc4)cc3)nc2n(CCC)c1=S [Compound 41] |  | 36 | 322 ± 17 nM | 
Cn1c(=S)c2[nH]c(C3CCCC3)nc2n(C)c1=O [Compound 54] | 202 ± 26 nM | 44.4 | 8980 nM | 
CCCn1c(=O)c2[nH]c(-c3ccc(OCC(=O)NCCNC(=O)[C@H](N)CCCCN)cc3)nc2n(CCC)c1=O [Compound 42] | 0.87 ± 0.09 nM | 210 |  | Ki (A2 adenosine receptors [1]; [4]): 180 nM
CCCn1c(=O)c2nc(-c3ccc(OCC(=O)NCCNC(=O)CCCCCCC(=O)ON4C(=O)CCC4=O)cc3)[nH]c2n(CCC)c1=S [Compound 45, N-Succinimidyl 8-[2-[4-(6-Carboxy-n-hexyl)carbonylaminoethyl[amino[carbonyl[methyloxyphenyl]]]]]-1,3-dipropyl-2-thioxanthine] |  |  |  | Ki (A1 adenosine receptors): 33.5 nM
CCCn1c(=O)c2[nH]c(-c3ccc(OCC(=O)NCCNC)cc3)nc2n(CCC)c1=S [Compound 33] | 2.4 ± 0.28 nM |  |  | 
CCCn1c(=O)c2[nH]c(-c3ccc(OCC(=O)NCCNC(=O)Cc4ccc(I)s4)cc3)nc2n(CCC)c1=O [Compound 48] | 11.3 ± 1.5 nM | 10.3 | 116 ± 25 nM | 
CCn1c(=S)c2[nH]c(-c3ccccc3)nc2n(CC)c1=O [Compound 57] | 1010 nM | 3.47 | 3510 nM | fold less potent at A1-receptors (A1 adenosine receptors): 23 fold; fold less potent at A2-receptors (A2 adenosine receptors [1]; 6-thio analog 57 versus DPX, 24): 12 fold
CCCn1c(=O)c2[nH]c(-c3ccc(OCC(=O)O)cc3)nc2n(CCC)c1=O [Compound 27] | 58 ± 3 nM | 37.8 |  | Ki (A2 adenosine receptors [1]; [4]): 2200 nM

Structure (SMILES) | Ki (A1 adenosine receptors; [3]) | Ki (A2)/Ki (A1) (A1 adenosine receptors) | Ki (A2 adenosine receptors [1]) | further results
CCCn1c(=O)c2[nH]c(-c3ccc(OCC(=O)N(C)CCN(C)C)cc3)nc2n(CCC)c1=S [Compound 37, (8-[2-Dimethylaminoethyl[N-methylamino[carbonyl[methyl[oxyphenyl]]]]]-2-thio-1,3-dipropylxanthine)] | 2.57 ± 0.67 nM |  | 24.5 ± 8.4 nM | 
CCCn1c(=O)c2[nH]c(-c3ccc(OCC(=O)NCCN(C)C)cc3)nc2n(CCC)c1=O [Compound 34] |  | 1.8 | 5.03 ± 0.54 nM | 
Cn1c(=S)c2[nH]c(-c3ccccc3)nc2n(C)c1=O [Compound 56] | 1380 nM | 8.18 | 11300 nM | 
CCCn1c(=O)c2[nH]c(-c3ccc(OCC(=O)NCCNC(=O)[C@H](N)CCCCNC(=O)OCc4ccccc4)cc3)nc2n(CCC)c1=O [Compound 40] |  | 30 | 191 ± 13 nM | 
CCCn1c(=S)c2[nH]c(C3CCCC3)nc2n(CCC)c1=O [Compound 55, 8-cyclopentyl-1,3-dipropyl-6-thioxanthine] | 15.5 ± 1.5 nM | 217 | 3360 nM | fold less potent at A1-receptors (A1 adenosine receptors): 17 fold
Cn1c(=O)c2nc(-c3ccoc3)[nH]c2n(C)c1=O [Compound 16, reference compound] |  | 13.6 |  | Ki (A2 adenosine receptors [2]): 984 ± 70 nM
CCCn1c(=O)c2[nH]c(-c3ccc(OCC(=O)NCCNC(=O)CCCCCCC(=O)NCc4cccs4)cc3)nc2n(CCC)c1=O [Compound 49] | 7.44 ± 0.98 nM | 85 |  | Ki (A2 adenosine receptors [1]; [4]): 630 ± 160 nM
CCCn1c(=O)c2[nH]c(C3CCCC3)nc2n(CCC)c1=S [Compound 14] | 0.655 ± 0.058 nM | 479 | 314 ± 62 nM | A1-selectivity, in words (A1 adenosine receptors; A1 versus A2 binding, relative to oxygen analogs): a greater margin of A1 -selectivity; A1 affinity/potency, in words (A1 adenosine receptors): the A1 affinity was enhanced by the thio substitution
CCCn1c(=O)c2[nH]c(-c3ccc(OCC(=O)NCCN(C)C)cc3)nc2n(CCC)c1=S [Compound 35] | 2.55 ± 0.6 nM | 11 | 27.9 ± 7.5 nM | 
CCCn1c(=O)c2[nH]c(-c3ccc(OCC(=O)NCCN)cc3)nc2n(CCC)c1=S [Compound 31] | 2.69 ± 0.77 nM | 9.8 | 26.3 ± 1.76 nM | A1 affinity/potency, in words (A1 adenosine receptors): with less affinity at A1 -receptors than the corresponding oxygen analog; A2 affinity/potency, in words (A2 adenosine receptors [1]): enhanced over the oxygen analog
Cn1c(=O)c2[nH]c(-c3ccsc3)nc2n(C)c1=O [Compound 18] | 152 ± 27 nM | 5.53 | 841 ± 109 nM | A2 affinity/potency, in words (A2 adenosine receptors [1]): Preference for 3-thienyl derivatives was evident particularly at the A2 -subtype
CCCn1c(=O)c2[nH]c(-c3ccc(OCC(=O)NCCNC(=O)[C@H](N)CCCCN)cc3)nc2n(CCC)c1=S [Compound 43] |  | 3.6 | 46.8 ± 9.4 nM | 
CCCn1c(=O)c2[nH]c(-c3ccc(OCC(=O)NCCNC(=O)[C@@H](CCCCNC(=O)OCc4ccccc4)NC(=O)OC(C)(C)C)cc3)nc2n(CCC)c1=S [Compound 39] |  | 10 | 870 nM | 
Cn1c(=O)c2[nH]c(-c3cccs3)nc2n(C)c1=O [Compound 17] | 233 ± 48.6 nM | 6.97 | 1630 nM | 
Cn1c(=O)c2nc(-c3cccs3)[nH]c2n(C)c1=S [Compound 21] | 221 ± 43.3 nM | 7.87 |  | Ki (A2 adenosine receptors [1]; [4]): 1740 nM
Cn1c(=O)c2[nH]c(-c3ccco3)nc2n(C)c1=O [Compound 15, reference compound] |  | 7.94 |  | Ki (A2 adenosine receptors [2]): 2780 nM
CCCn1c(=S)c2[nH]c(C3CCCC3)nc2n(CCC)c1=S [Compound 53] | 4.87 ± 0.82 nM | 572 | 2780 nM | A1 affinity/potency, in words (A1 adenosine receptors): intermediate in potency between the corresponding 2-thio and 6-thio analogs; A2 affinity/potency, in words (A2 adenosine receptors [1]): intermediate in potency between the corresponding 2-thio and 6-thio analogs
